Test results from patent US11986540B2, “Compositions including pafolacianine for the identification of malignant lesions” (ON TARGET LABORATORIES, LLC., priority 2022, dated 2024).

Key:
[1] = tested on: cytochrome P450 (CYP) enzymes; assay: Metabolism by CYP enzymes; type: in vitro ADME
[2] = Excretion after single IV infusion of radiolabeled pafolacianine sodium; type: in vivo; settings: after approximately 3-5 weeks
[3] = tested on: FR-positive KB cell tumor xenografts; assay: Whole body imaging and tissue distribution, FR-positive KB tumor xenografts; type: in vivo, mice; settings: compared with pafolacianine
Protocol: Whole body imaging and tissue distribution of pafolacianine and OTL0039 was performed in female nu/nu mice bearing FR-positive KB cell tumor xenografts. […] This observation was consistent with the lower binding affinity of the D-isomer for FR compared with the L-isomer. Tumor fluorescence was brighter in mice receiving pafolacianine compared with other folate-conjugated near infrared dyes such as LS288, IR800 and ZW800.
The optimal dose range for pafolacianine with respect to tumor-to-background ratio in FR-positive tumor-bearing mice was 1 to 30 nmol/mouse, with lower fluorescence intensity observed in tumors at a lower dose (0.3 nmol) and higher fluorescence intensity observed in other tissues at doses above 30 nmol. In a second experiment, pafolacianine whole body imaging and tissue distribution was examined again; however, this experiment was performed in female nu/nu mice bearing FR-negative A549 cell tumor xenografts.

## CC1(C)C(/C=C/C2=C(Oc3ccc(C[C@H](NC(=O)c4ccc(NCc5cnc6nc(N)[nH]c(=O)c6n5)cc4)C(=O)[O-])cc3)C(=C/C=C3/N(CCCCS(=O)(=O)[O-])c4ccc(S(=O)(=O)[O-])cc4C3(C)C)/CCC2)=[N+](CCCCS(=O)(=O)[O-])c2ccc(S(=O)(=O)[O-])cc21.O.[Na+].[Na+].[Na+].[Na+] [pafolacianine sodium, (S)-2-(4-(((2-amino-4-oxo-3,4-dihydropteridin-6-yl)methyl)amino)benzamido)-3-(4-(((E)-2-((E)-2-(3,3-dimethyl-5-sulfonato-1-(4-sulfonatobutyl)-3H-indol-1-ium-2-yl)vinyl)-6-((E)-2-(3,3-dimethyl-5-sulfonato-1-(4-sulfonatobutyl)indolin-2-ylidene)ethylidene)cyclohex-1-en-1-1)oxy)phenyl)propanoate hydrate tetrasodium]
[1]
  metabolism by cytochrome P450 (CYP) enzymes: not metabolized
[2]
  dose recovered in feces: 15.8%
  dose recovered in urine: 19.1%
  dose recovered in urine and feces: approximately 35%

## CC1(C)C(=CC=C2CCCC(C=CC3=[N+](CCCCS(=O)(=O)[O-])c4ccc(S(=O)(=O)O)cc4C3(C)C)=C2Oc2ccc(C[C@@H](NC(=O)c3ccc(NCc4cnc5nc(N)[nH]c(=O)c5n4)cc3)C(=O)O)cc2)N(CCCCS(=O)(=O)O)c2ccc(S(=O)(=O)O)cc21 [OTL0039, reference compound]
[3]
  fluorescence signal intensity in tumors and kidneys: weaker fluorescence signal intensity than pafolacianine
